Results published in the supplement of paper PMC11451515.

How the values were obtained:
Settings in all cases: 48 h
NOMO1 [1] = experiment: cell viability relative to DMSO control; higher = less cytotoxic
Summary of the method: (§1)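 NOMO1, SEM and P12-Ichikawa leukemia cells spent at least four passages adapting to each medium before use. They were seeded at 500 cells/well (NOMO1, SEM) or 1000 cells/well (P12-Ichikawa) in 5 μl in 1536-well plates and pin-dosed with library compounds in DMSO at 11 threefold steps from 47 μM down to 0.79 nM. After 48 h at 37°C, CellTiter-Glo One luminescence was read. Viability is reported as a percentage of the DMSO wells on each plate, with cell-free wells as background.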

P12-Ichikawa [2] = experiment: as above
Summary of the method: as §1

SEM cells [3] = experiment: as above
Summary of the method: as §1

NOMO1 [4] = experiment: AUC of viability dose-response curve (% viability x log10 dose units); higher = less sensitive
Summary of the method: (§2)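 Library compounds in DMSO were applied for 48 h at 37°C at 11 threefold doses (47 μM to 0.79 nM) to medium-adapted leukemia cells in 1536-well plates holding 500 or 1000 cells/well. Luminescence from CellTiter-Glo One was normalised plate by plate against DMSO and cell-free wells. Area under the curve came from trapezoidal integration of a log-logistic fit, after scaling curves that rose above full viability and discarding those that failed quality control. The fit had four parameters and used log10 doses.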

P12-Ichikawa [5] = experiment: as above
Summary of the method: as §2

SEM cells [6] = experiment: as above
Summary of the method: as §2

Cc1cnc(Nc2ccc(OCCN3CCCC3)cc2)nc1Nc1cccc([S+](=O)([O-])NC(C)(C)C)c1
cell viability [%]
Settings	NOMO1 [1]	P12-Ichikawa [2]	SEM cells [3]
HPLM + 10% dialyzed FBS, 0.000781 µM	78.8	100	83.6
HPLM + 10% dialyzed FBS, 0.00234 µM	102	108	93.2
HPLM + 10% dialyzed FBS, 0.00702 µM	109	110	93.9
HPLM + 10% dialyzed FBS, 0.0211 µM	116	110	88.2
HPLM + 10% dialyzed FBS, 0.0632 µM	117	115	96.3
HPLM + 10% dialyzed FBS, 0.19 µM	126	111	89.5
HPLM + 10% dialyzed FBS, 0.569 µM	102	119	96.7
HPLM + 10% dialyzed FBS, 1.71 µM	114	114	102
HPLM + 10% dialyzed FBS, 5.12 µM	110	112	96.1
HPLM + 10% dialyzed FBS, 15.4 µM	100	108	68.2
HPLM + 10% dialyzed FBS, 46.1 µM	84.3	112	67.2
RPMI 5 mM glucose + 10% FBS, 0.000781 µM	105	110	88.9
RPMI 5 mM glucose + 10% FBS, 0.00234 µM	107	116	95.8
RPMI 5 mM glucose + 10% FBS, 0.00702 µM	104	110	95.4
RPMI 5 mM glucose + 10% FBS, 0.0211 µM	90.3	119	111
RPMI 5 mM glucose + 10% FBS, 0.0632 µM	108	120	104
RPMI 5 mM glucose + 10% FBS, 0.19 µM	110	116	106
RPMI 5 mM glucose + 10% FBS, 0.569 µM	98	120	108
RPMI 5 mM glucose + 10% FBS, 1.71 µM	97.3	117	88.5
RPMI 5 mM glucose + 10% FBS, 5.12 µM	114	110	89.9
RPMI 5 mM glucose + 10% FBS, 15.4 µM	92.7	108	90.1
RPMI 5 mM glucose + 10% FBS, 46.1 µM	102	112	77.2
RPMI 5 mM glucose + 10% dialyzed FBS, 0.000781 µM	87.5	91.8	83.5
RPMI 5 mM glucose + 10% dialyzed FBS, 0.00234 µM	106	101	97.3
RPMI 5 mM glucose + 10% dialyzed FBS, 0.00702 µM	99.6	109	98.8
RPMI 5 mM glucose + 10% dialyzed FBS, 0.0211 µM	105	106	106
RPMI 5 mM glucose + 10% dialyzed FBS, 0.0632 µM	100	117	98.2
RPMI 5 mM glucose + 10% dialyzed FBS, 0.19 µM	102	109	99.2
RPMI 5 mM glucose + 10% dialyzed FBS, 0.569 µM	103	111	106
RPMI 5 mM glucose + 10% dialyzed FBS, 1.71 µM	102	118	98.1
RPMI 5 mM glucose + 10% dialyzed FBS, 5.12 µM	103	110	82.4
RPMI 5 mM glucose + 10% dialyzed FBS, 15.4 µM	102	110	84.5
RPMI 5 mM glucose + 10% dialyzed FBS, 46.1 µM	100	97.6	71.9

AUC of viability dose-response curve
Settings	NOMO1 [4]	P12-Ichikawa [5]	SEM cells [6]
HPLM + 10% dialyzed FBS	477	469	427
RPMI 5 mM glucose + 10% FBS	470	471	458
RPMI 5 mM glucose + 10% dialyzed FBS	473	468	447

CCOC(=O)c1ncn2c1CN(C)C(=O)c1cc(F)ccc1-2
cell viability [%]
Settings	NOMO1 [1]	P12-Ichikawa [2]	SEM cells [3]
HPLM + 10% dialyzed FBS, 0.000781 µM	131	120	78.9
HPLM + 10% dialyzed FBS, 0.00234 µM	124	113	104
HPLM + 10% dialyzed FBS, 0.00702 µM	124	113	87.2
HPLM + 10% dialyzed FBS, 0.0211 µM	117	117	93.3
HPLM + 10% dialyzed FBS, 0.0632 µM	123	107	92.9
HPLM + 10% dialyzed FBS, 0.19 µM	120	107	94.3
HPLM + 10% dialyzed FBS, 0.569 µM	109	111	97.2
HPLM + 10% dialyzed FBS, 1.71 µM	110	106	90.7
HPLM + 10% dialyzed FBS, 5.12 µM	108	72	79.8
HPLM + 10% dialyzed FBS, 15.4 µM	90	67.7	84.6
HPLM + 10% dialyzed FBS, 46.1 µM	73.6	62	52.9
RPMI 5 mM glucose + 10% FBS, 0.000781 µM	116	106	94.6
RPMI 5 mM glucose + 10% FBS, 0.00234 µM	130	113	111
RPMI 5 mM glucose + 10% FBS, 0.00702 µM	118	109	112
RPMI 5 mM glucose + 10% FBS, 0.0211 µM	111	114	92.5
RPMI 5 mM glucose + 10% FBS, 0.0632 µM	99.6	116	105
RPMI 5 mM glucose + 10% FBS, 0.19 µM	104	126	98.6
RPMI 5 mM glucose + 10% FBS, 0.569 µM	106	103	98.8
RPMI 5 mM glucose + 10% FBS, 1.71 µM	120	106	93.6
RPMI 5 mM glucose + 10% FBS, 5.12 µM	120	92.2	67.5
RPMI 5 mM glucose + 10% FBS, 15.4 µM	108	71.7	57.1
RPMI 5 mM glucose + 10% FBS, 46.1 µM	76.8	48.9	46.8
RPMI 5 mM glucose + 10% dialyzed FBS, 0.000781 µM	122	112	99
RPMI 5 mM glucose + 10% dialyzed FBS, 0.00234 µM	109	119	107
RPMI 5 mM glucose + 10% dialyzed FBS, 0.00702 µM	110	107	109
RPMI 5 mM glucose + 10% dialyzed FBS, 0.0211 µM	124	119	113
RPMI 5 mM glucose + 10% dialyzed FBS, 0.0632 µM	113	123	116
RPMI 5 mM glucose + 10% dialyzed FBS, 0.19 µM	107	113	131
RPMI 5 mM glucose + 10% dialyzed FBS, 0.569 µM	128	116	117
RPMI 5 mM glucose + 10% dialyzed FBS, 1.71 µM	95.7	102	87.3
RPMI 5 mM glucose + 10% dialyzed FBS, 5.12 µM	116	84.8	75.6
RPMI 5 mM glucose + 10% dialyzed FBS, 15.4 µM	103	74.4	79.6
RPMI 5 mM glucose + 10% dialyzed FBS, 46.1 µM	78.8	46.7	43.9

AUC of viability dose-response curve
Settings	NOMO1 [4]	P12-Ichikawa [5]	SEM cells [6]
HPLM + 10% dialyzed FBS	433	427	421
RPMI 5 mM glucose + 10% FBS	432	432	420
RPMI 5 mM glucose + 10% dialyzed FBS	465	424	422
